Source: paper PMC8684484, “The assessment of Pseudomonas aeruginosa lectin LecA binding characteristics of divalent galactosides using multiple techniques” (Glycobiology, 2021)

Experiments:
LecA [1] = target: T1, LecA (Pseudomonas aeruginosa, UniProt Q05097); assay: Affinity capillary electrophoresis (ACE), direct binding, μeff shift of LecA with carbohydrate in BGE
T1 construct: purchased Sigma–Aldrich (Steinheim, Germany)
Protocol: For affinity studies, two different LecA ligands were used. The first was the carboxylated galactoside (1). This was used as the reference monovalent ligand and its negatively charged carboxylate increases the chances of a protein shift in CE where charges are the important mobility determinant. Furthermore we used the bivalent carbohydrate (2), previously optimized for bivalent binding ([Yu et al. 2019b]). These glycoligands were added to the optimized CE background electrolyte (BGE) and the protein LecA was injected. For KD determination the BGE containing increasing concentrations of carbohydrate 1 or carbohydrate 2 were prepared and used for the analysis of LecA (10 μM). […] For each carbohydrate and each concentration, the difference of the measured μeff of LecA with the μeff acquired without carbohydrate in the BGE, was determined. […]
CE analyses were carried out using an Agilent 7100 instrument (Agilent technologies, USA). […] Ultraviolet detection was performed from 190 nm to 280 nm, but data recorded at 214 nm were used in this study. […]
BGEs containing increasing concentrations of compound 1 and/or compound 2 were prepared at the pH for which μeff shifts were observed and used for KD determination. For each carbohydrate and each studied concentration, the difference of the measured μeff of LecA with the μeff obtained without carbohydrate was determined. […]

[2] = target: T2, Maclura pomifera Lectin (MPL) (Maclura pomifera, UniProt P18674); assay: ACE selectivity experiment with MPL as binding competitor; details: mixture of LecA and MPL; 1 mM of 1 or 20 μM of 2 in BGE
T2 construct: purchased Vector Laboratories (San Francisco, CA, USA)
T2 sequence (P18674 whole entry): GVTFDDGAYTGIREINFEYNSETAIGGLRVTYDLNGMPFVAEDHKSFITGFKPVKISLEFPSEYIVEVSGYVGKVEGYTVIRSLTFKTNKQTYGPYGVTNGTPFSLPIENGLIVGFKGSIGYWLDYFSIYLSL
T2 sequence (P18676 whole entry partner): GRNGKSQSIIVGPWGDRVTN
Protocol: A mixture of LecA and MPL was analyzed by ACE, and affinity studies were carried out by adding the carbohydrates 1 and 2 to the BGE.
CE analyses were carried out using an Agilent 7100 instrument (Agilent technologies, USA). Bare fused-silica capillaries, with a 100 μm internal diameter, 365 μm outer diameter and a 50 cm total length, were from Biotaq (Gaithersburg, MD, USA). The detection window of the capillary was created at 10 cm from the outlet of the capillary. Hydrodynamic injections were performed at 17 mbar for 4 s, by injecting LecA or MPL (10 μM). The separation voltage was set at −10 kV and the caplillary temperature was maintained at 25°C during analysis. Ultraviolet detection was performed from 190 nm to 280 nm, but data recorded at 214 nm were used in this study. The BGE for the analysis of the lectins was potassium phosphate prepared by dissolving the appropriate amount of compounds in water and adjusting the pH with a sodium hydroxide solution. Capillaries were coated with Ultra Trol LN. Stable currents of 45 μA were observed during the affinity measurements with optimum buffer conditions (25 mM KH2PO4 at pH 7).
In order to study the affinity of LecA toward inhibitors, LecA was injected and carbohydrate inhibitors were added to the BGEs. BGEs were prepared containing 1 mM of compound 1, 20 μM of compound 2, or without carbohydrate. […]

LecA [3] = target: T1, LecA; assay: Fluorescence-based thermal shift assay (TSA), Sypro orange; assay type: binding; details: ligand 500 μM; for Tm of LecA: no ligand 71.7
Protocol: As ligand binding is known to shift the melting point of proteins in a ligand concentration dependent manner, we performed the TSA experiments with two different concentrations of LecA (0.5 and 1 mg/mL) containing the fluorescent dye sypro orange. […] Therefore, we selected a fixed concentration of 1 mg/mL for the subsequent experiments. […] Divalent 2 stabilizes LecA by more than 11°C at a concentration of 20 μM (Figure 7).
TSA was performed using a standard real-time PCR instrument. To monitor protein unfolding, the fluorescent dye Sypro orange was used. Sypro orange is an environmentally sensitive dye (Thermo Fischer 5000x in DMSO). The unfolding process exposes the hydrophobic region of proteins and results in a large increase in fluorescence, which is used to monitor the protein-unfolding transition ([Lo et al. 2004]). The TSA was performed with a BioRad CFX96 real-time PCR machine, and analysis for binding induced shifts in thermal transition was performed with Bio-Rad CFX Manager 3.1 Software provided by the manufacturer (BioRad, Hercules, CA, USA).
Galactose based inhibitors specifically bind to the binding pocket of the lectin. Ligands could stabilize LecA (0.5 and 1 mg/mL) upon binding and therefore the protein Tm might increase. The shift in Tm with an addition of the ligand (ΔTm) serves as a qualitative measure of protein stability and allows to determine whether a protein–ligand binding event occurs. We here show the effect of different carbohydrates on the thermal denaturation of LecA. Sypro orange conc, used: 320× from commercial 5000×).

LecA [4] = target: T1, LecA; assay: Native ESI-MS occupancy of the LecA tetramer; assay type: binding; details: ligand 600 μM, LecA 10 μM; estimated from MS intensities
Protocol: At the high concentration of monovalent compound 1 (600 μM) incubated with LecA (10 μM), a varying number of binding pockets of the tetrameric lectin were occupied by the monovalent ligand indicated by four different peaks in close proximity (Figure 8b). At these concentrations, an estimated number of copies of LecA of 8% remains fully unoccupied, 18% has one pocket occupied, 26% has two pockets occupied, 27% has three pockets occupied and 21% is fully occupied. We used the intensity values as determined by mass spectrometry as a proxy of their abundances in solution to calculate the occupancy values, for which previously it was shown that there is good correlation ([Seo et al. 2016]).
At a low (substoichiometric) concentration of divalent compound 2 (2 μM), 3 m/z peaks were observed that correspond to unbound LecA (estimated 6%), LecA bound to one compound 2 (estimated 39%) and LecA bound to two of the divalent ligand 2 (estimated 55%) (Figure 8c). […] As no peaks were detected corresponding to a single or triple binding pockets of the tetrametric lectin, excellent support is provided for the effective divalent binding of our molecule at reasonable concentrations.
To investigate the interaction between LecA and compounds 1 and 2, we incubated these compounds with LecA and transferred the produced complex into a 150 mM ammonium acetate solution (pH 7.5) by applying 10 μM of the protein ligand complex in a ratio of 1:1 on a pre-equilibrated 6-kDa Micro Bio-Spin column (Bio-Rad). The protein was eluted by centrifugation at 1,000 × g and 4°C. MS measurements were performed in positive ion mode using an Electrospray Ionization Time-of-Flight instrument (LC-T; Micromass, Manchester, UK) equipped with a Z-spray nanoelectrospray ionization source. Samples were sprayed from in-house prepared borosilicate glass capillaries (Kwik-Fil; World Precision Instruments, Sarasota, FL) prepared on a P-97 puller (Sutter Instruments, Novato, CA, USA) and coated with a thin layer of gold by using an Edwards Scan coat six Pirani 501 sputter coater (Edwards Laboratories, Milpitas, CA, USA). Instrument settings were adjusted for optimal transmission of high mass ions. A capillary voltage of 1300 V was used, in combination with a sampling cone voltage of 60 V. The source backing pressure was elevated to approximately 6.7 mbar in order to promote collisional cooling. All TOF data were mass calibrated by using an aqueous solution of cesium iodide (25 mg·mL^−1) and interpreted manually using MassLynx software (Waters, version 4.1).

LecA [5] = target: T1, LecA; assay: Bio-layer interferometry (BLI), biotinylated ligand on streptavidin sensor; assay type: binding; details: immobilized ligand
Protocol: (§1) The biotinylated galactoside 3 (Figure 5) was immobilized on a streptavidin coated sensor. […] This is likely due to the well-known low affinity of monovalent ligands for most lectins even though the presentation of the ligand on the chip was also multivalent, but apparently not matching the distances between binding sites. Next, the binding properties of the divalent biotinylated 4 with the mentioned lectins were evaluated. […] Indeed, during the dissociation step, the signal only partially decreases down to the baseline and this lack of full dissociation indicates high affinity. Using this setup, kinetic parameters of the interaction were determined for the divalent galactoside to evaluate whether the divalent binding mode of this ligand influences the lectin–ligand kinetics. By fitting the sensorgrams with a global model ([…]), association (ka or kon) and dissociation (kd or koff) constants were determined and the KD was calculated from the ratio of kd over the ka while the residence time (τ) was derived from 1/kd. […] The same was true for compound 4 and lectins MPL and JIL.
(§2) BLI measurements were carried out using an Octet RED 384 instrument (ForteBio). Biosensors were transferred into fresh assay buffer for 180 s to collect a baseline read. Compound 3 and compound 4 were immobilized on streptavidin (SA)-functionalized biosensors to maximum levels by incubation for 900 s at 1 μM ([Guo et al. 2018]). For each set of biosensors, an 180 s baseline in buffer alone was acquired followed by an 1800 s association step and an 1800 s dissociation step. All experiments were carried out using PBS (10 mM phosphate, 150 mM NaCl, pH 7.4) as the assay buffer at 298 K. Data were processed and analyzed and KD values were determined using the global fitting procedures as implemented in Octet® system Data Analysis Software 9.0.0.48 (Pall ForteBio LLC, Menlo Park, CA, USA). Kinetic responses were fitted to a 1-site binding model to obtain values for association (kon) and dissociation (koff) rate constants. The KD derived from kinetic fitting was calculated as koff/kon.

MPL = target: T3, MPL (Maclura pomifera, UniProt P18674); assay: as above; assay type: binding; details: immobilized ligand
T3 construct: purchased Vector Laboratories (San Francisco, CA, USA)
T3 sequence (P18674 whole entry): as the sequence (P18674 whole entry) above
Protocol: as §1, §2

JIL (Jacalin lectin) = target: T4, JIL (Jacalin lectin) (Artocarpus integer, UniProt P18670); assay: as above; assay type: binding, Jackfruits; details: immobilized ligand
T4 construct: purchased Sigma–Aldrich (Steinheim, Germany)
T4 sequence (P18670 whole entry): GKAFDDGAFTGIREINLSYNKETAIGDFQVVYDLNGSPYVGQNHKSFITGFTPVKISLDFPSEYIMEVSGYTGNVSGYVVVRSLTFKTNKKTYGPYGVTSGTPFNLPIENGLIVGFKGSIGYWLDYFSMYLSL
T4 sequence (P18673 whole entry, further chain): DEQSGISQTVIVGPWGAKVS
Protocol: as §1
BLI measurements were carried out using an Octet RED 384 instrument (ForteBio). Biosensors were transferred into fresh assay buffer for 180 s to collect a baseline read. […] The KD derived from kinetic fitting was calculated as koff/kon.

T1 sequence (Q05097 2-122): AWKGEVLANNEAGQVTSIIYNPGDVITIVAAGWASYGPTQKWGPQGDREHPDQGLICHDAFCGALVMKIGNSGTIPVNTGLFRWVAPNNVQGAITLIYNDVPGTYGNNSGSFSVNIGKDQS

`O=C(O)CO[C@@H]1O[C@H](CO)[C@H](O)[C@H](O)[C@H]1O` [Compound 1] was tested, and the Kd (LecA [1]) was 27 µM, the “μeff shift of LecA with carbohydrate in BGE” value (LecA [1]; mixture of LecA and MPL, 1 mM of 1 or 20 μM of 2 in BGE) was “sizeable shift” and the “μeff shift of MPL with carbohydrate in BGE” value [2] was “sizeable shift”. The “Tm of LecA” value (LecA [3]) was 74.0 °C, the LecA fully occupied (LecA [4]) was 21% and the LecA fully unoccupied (LecA [4]) was 8%. For the same compound, the “LecA with one pocket occupied” value (LecA [4]) was 18%, the “LecA with three pockets occupied” value (LecA [4]) was 27% and the “LecA with two pockets occupied” value (LecA [4]) was 26%.

In the case of `OC[C@H]1OC(O)[C@@H](O)[C@@H](O)[C@@H]1O` (stereo partly drawn) [D-Mannose, D-mannose], the “stabilization of LecA (ΔTm)” value (LecA [3]; LecA 1 mg/mL) is reported as “did not stabilize LecA at all” and the “Tm of LecA” value (LecA [3]) is reported as 71.7 °C.

`O=C(CCCC[C@@H]1SC[C@@H]2NC(=O)N[C@@H]21)NCCCCCC(=O)NCCCO[C@@H]1O[C@H](CO)[C@H](O)[C@H](O)[C@H]1O` [Compound 3] was tested, and the BLI signal (LecA [5]; LecA at 1 μM) was “no detectable signal”, the “BLI association and dissociation” value (LecA [5]; LecA up to 10 μM) was “no significant association and dissociation phenomena” and the BLI signal (MPL; MPL at 1 μM) was “no detectable signal”. For the same compound, the “BLI association and dissociation” value (MPL; MPL up to 10 μM) was “no significant association and dissociation phenomena”, the BLI signal (JIL (Jacalin lectin); JIL at 1 μM) was “no detectable signal” and the “BLI association and dissociation” value (JIL (Jacalin lectin); JIL up to 10 μM) was “no significant association and dissociation phenomena”.
